Legend:
NALM6 cells = assay: Immunoblot of apoptosis markers (cleaved caspase 3, caspase 7, PARP1) in NALM6 cells; format: cell-based, human; details: NALM6, 24-hour treatment with KDM inhibitor
Method: Cells were treated as indicated, and cell extracts were prepared in RIPA buffer ([…] Tris-HCl, pH 8, 150 mM NaCL, 1 mM EDTA, 1% NP-40, and 0.25% deoxycholate) supplemented with protease inhibitor tablets (Roche Molecular Biochemicals) and phosphatase inhibitors (1 mM NaF, 1 mM Na3VO4, and 1 mM β-glycerophosphate). Protein extracts were incubated overnight at 4° C. with shaking with 1 μg of antibodies against EHMT2 (Sigma G6919), EHMT1 (Millipore 09-078), or pan phospho-threonine (Millipore AB1607). Protein A/G plus agarose beads (Santa Cruz sc-2003) were added, and the mixture was incubated 2 h at 4° C. The immunoprecipitates were separated on SDS-PAGE. […]
FIGS. 40A, 40B, 40C, 40D-1, 40D-2, 40D-3, and 40D-4 show Aurora kinase B inhibitors sensitizing NALM6 cells to GC-induced cell death. As shown in FIGS. 40A and 40B, NALM6 cells were treated with the indicated dex concentration in addition to 0.75 μM ZM447439 (FIG. 40A), 16 nM AZD2811 (FIG. 40B), or equivalent volume of vehicle DMSO for 72 h, and cell survival was measured by a fluorescence metabolic assay. In each condition, the value measured with dex was normalized to the fluorescence value measured with ethanol. Percentage of survival is shown as the mean±SEM of 4 independent experiments and p-values for individual dex concentrations were calculated using a paired t-test. *p≤0.05, **p≤0.01, * * *p≤0.001. […]

[1] = tested on: interaction between HP1γ and G9a; assay: Co-immunoprecipitation of HA-hG9a with HP1γ in Cos-7 cells; format: cell-based, African green monkey; details: 2 μM, 24 h
Method: Cos-7 or A549 cells were seeded on 10-cm dishes the day before transfection. Cells were transiently transfected (where indicated) using Lipofectamine 2000 (Invitrogen) with 5 μg each of the indicated plasmids according to the manufacturer's protocol. At 48 h after transfection, cells were treated (or not) with dex for the indicated time period, and cell extracts were prepared in RIPA buffer (50 mM Tris-HCl, pH 8, 150 mM NaCl, 1 mM EDTA, 1% NP-40 and 0.25% deoxycholate) supplemented with protease inhibitor tablets (Roche Molecular Biochemicals) and phosphatase inhibitors (1 mM NaF, 1 mM Na3VO4 and 1 mM β-glycerophosphate). Protein extracts were incubated with 1 μg of the indicated primary antibodies overnight at 4° C. with shaking. Protein A/G Plus Agarose (Santa Cruz sc-2003) beads were added and the mixture was incubated 2 hr at 4° C. The immunoprecipitates were separated on SDS-PAGE. […] In immunoprecipitation experiments 3% of the input of each sample was analyzed by immunoblot using the antibodies listed. […]

Structure (SMILES) | dex-induced cleavage of caspase-3, caspase-7, and PARP1 (NALM6 cells) | interaction between HP1γ and G9a [1]
Clc1ccc(N/N=C(\c2ccccc2)c2ccccn2)nc1 [JIB-04, 5-chloro-N-[(E)-[phenyl(pyridin-2-yl)methylidene]amino]pyridin-2-amine] | enhanced | –
COc1cc2c(Nc3ccc(NC(=O)c4ccccc4)cc3)ncnc2cc1OCCCN1CCOCC1 [ZM447439, N-[4-[[6-methoxy-7-(3-morpholin-4-ylpropoxy)quinazolin-4-yl]amino]phenyl]benzamide] | – | increased

— patent US20200181284A1, “EPIGENETIC INHIBITORS FOR SENSITIZING HEMATOLOGIC OR OTHER MALIGNANCIES TO GLUCOCORTICOID THERAPY” (UNIVERSITY OF SOUTHERN CALIFORNIA, priority 2017, published 2020)
